Assay results from ChEMBL document CHEMBL1156482, “Molecular mechanism of action of monocyclam versus bicyclam non-peptide antagonists in the CXCR4 chemokine receptor” (J Biol Chem, 2007).
Activity calls are given as the source filed them. The rule behind the calls is not given here.

What was measured:
[1] = system: Human immunodeficiency virus 1; assay: Antiviral activity against HIV1 NL43 infected in U87.CD4 cells expressing human wild type CXCR4; type: functional, organism-based; details: Human immunodeficiency virus 1, NL43, U87.CD4
[2] = system: Human immunodeficiency virus 1; assay: Antiviral activity against HIV1 clinical isolate 10 infected in U87.CD4 cells expressing human CXCR4 H281A mutant; type: functional, organism-based; details: Human immunodeficiency virus 1, U87.CD4
[3] = system: Human immunodeficiency virus 1; assay: Antiviral activity against HIV1 clinical isolate 10 infected in U87.CD4 cells expressing human CXCR4 D171ND262N mutant; type: functional, organism-based; details: Human immunodeficiency virus 1, U87.CD4
[4] = system: Human immunodeficiency virus 1; assay: Antiviral activity against HIV1 NL43 infected in U87.CD4 cells expressing human CXCR4 D171N mutant; type: functional, organism-based; details: Human immunodeficiency virus 1, NL43, U87.CD4
[5] = system: Human immunodeficiency virus 1; assay: Antiviral activity against HIV1 NL43 infected in U87.CD4 cells expressing human CXCR4 H281A mutant; type: functional, organism-based; details: Human immunodeficiency virus 1, NL43, U87.CD4
[6] = system: Human immunodeficiency virus 1; assay: Antiviral activity against HIV1 NDK infected in U87.CD4 cells expressing human CXCR4 H281A mutant; type: functional, organism-based; details: Human immunodeficiency virus 1, NDK
[7] = system: Human immunodeficiency virus 1; assay: Antiviral activity against HIV1 clinical isolate 10 infected U87.CD4 cells expressing human CXCR4 E288A mutant; type: functional, organism-based; details: Human immunodeficiency virus 1, U87.CD4
[8] = system: Human immunodeficiency virus 1; assay: Antiviral activity against HIV1 NL43 infected in U87.CD4 cells expressing human CXCR4 E288A mutant; type: functional, organism-based
[9] = system: Human immunodeficiency virus 1; assay: Antiviral activity against HIV1 NDK infected in U87.CD4 cells expressing human CXCR4 D171ND262N mutant; type: functional, organism-based; details: Human immunodeficiency virus 1, NDK
[10] = system: C-X-C chemokine receptor type 4 (Homo sapiens), P61073 [I259A]; details: COS-7
C-X-C chemokine receptor type 4 (Homo sapiens), P61073 [I259A], sequence (P61073 whole entry I259A): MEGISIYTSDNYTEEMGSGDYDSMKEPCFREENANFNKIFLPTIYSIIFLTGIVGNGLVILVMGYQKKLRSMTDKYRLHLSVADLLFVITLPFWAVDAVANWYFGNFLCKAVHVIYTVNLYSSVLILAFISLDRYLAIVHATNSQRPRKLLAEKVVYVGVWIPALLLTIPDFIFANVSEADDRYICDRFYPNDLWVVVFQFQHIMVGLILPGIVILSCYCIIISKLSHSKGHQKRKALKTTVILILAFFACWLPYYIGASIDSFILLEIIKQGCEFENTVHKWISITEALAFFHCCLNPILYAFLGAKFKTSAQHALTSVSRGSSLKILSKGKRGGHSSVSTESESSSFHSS

[11] = system: Human immunodeficiency virus 1; assay: Antiviral activity against HIV1 NL43 infected in U87.CD4 cells expressing human CXCR4 D171N/D262N mutant; type: functional, organism-based
[12] = system: Human immunodeficiency virus 1; assay: Antiviral activity against HIV1 NDK infected in U87.CD4 cells expressing human wild type CXCR4; type: functional, organism-based; details: Human immunodeficiency virus 1, NDK
[13] = system: C-X-C chemokine receptor type 4 (Homo sapiens), P61073 [H281A]; assay: Antagonist activity at human CXCR4 H281A mutant expressed in U87.CD4 cells assessed as inhibition of CXCL12-induced calcium mobilization; type: functional, cell-based
C-X-C chemokine receptor type 4 (Homo sapiens), P61073 [H281A], sequence (P61073 whole entry H281A): as the sequence (P61073 whole entry I259A) above, with A259I, H281A counted along it

[14] = system: Human immunodeficiency virus 1; assay: Antiviral activity against HIV1 clinical isolate 10 infected in U87.CD4 cells expressing human CXCR4 D262N mutant; type: functional, organism-based; details: Human immunodeficiency virus 1, U87.CD4
[15] = system: C-X-C chemokine receptor type 4 (Homo sapiens), P61073 [H113A]; assay: Displacement of [125I]12G5 antibody from transmembrane domain 3 of human CXCR4 H113A mutant expressed in COS7 cells; type: cell-based; details: COS-7
C-X-C chemokine receptor type 4 (Homo sapiens), P61073 [H113A], sequence (P61073 whole entry H113A, the tested form may be a part): as the sequence (P61073 whole entry I259A) above, with H113A, A259I counted along it

[16] = system: Human immunodeficiency virus 1; assay: Antiviral activity against HIV1 NDK infected in U87.CD4 cells expressing human CXCR4 D171N mutant; type: functional, organism-based; details: Human immunodeficiency virus 1, NDK
[17] = system: C-X-C chemokine receptor type 4 (Homo sapiens), P61073 [D171N]; assay: Displacement of [125I]12G5 antibody from transmembrane domain 4 of human CXCR4 D171N mutant expressed in COS7 cells; type: cell-based; details: COS-7
C-X-C chemokine receptor type 4 (Homo sapiens), P61073 [D171N], sequence (P61073 whole entry D171N, the tested form may be a part): as the sequence (P61073 whole entry I259A) above, with D171N, A259I counted along it

[18] = system: Human immunodeficiency virus 1; assay: Antiviral activity against HIV1 NDK infected in U87.CD4 cells expressing human CXCR4 E288A mutant; type: functional, organism-based; details: Human immunodeficiency virus 1, NDK
[19] = system: Human immunodeficiency virus 1; assay: Antiviral activity against HIV1 NDK infected in U87.CD4 cells expressing human CXCR4 D262N mutant; type: functional, organism-based; details: Human immunodeficiency virus 1, NDK
[20] = system: Human immunodeficiency virus 1; assay: Antiviral activity against HIV1 clinical isolate 10 infected in U87.CD4 cells expressing human wild type CXCR4; type: functional, organism-based; details: Human immunodeficiency virus 1, U87.CD4
[21] = system: Human immunodeficiency virus 1; assay: Antiviral activity against HIV1 NL43 infected in U87.CD4 cells expressing human CXCR4 D262N mutant; type: functional, organism-based; details: Human immunodeficiency virus 1, NL43, U87.CD4
[22] = system: Human immunodeficiency virus 1; assay: Antiviral activity against HIV1 clinical isolate 10 infected in U87.CD4 cells expressing human CXCR4 D171N mutant; type: functional, organism-based; details: Human immunodeficiency virus 1, U87.CD4

Compound: c1cc(CN2CCCNCCNCCCNCC2)ccc1CN1CCCNCCNCCCNCC1 [PLERIXAFOR]
- IC50 [1]: 14 nM
- IC50 [2]: 2.4 nM
- IC50 [3]: 2690 nM
- IC50 [4]: 46 nM
- IC50 [5]: < 1.9 nM
- IC50 [6]: < 1.9 nM
- IC50 [7]: > 121 nM
- Activity [8]: inactive
- IC50 [9]: > 3000 nM
- logKi [10]: -5.81
- Activity [11]: inactive
- IC50 [12]: 7.6 nM
- Activity [13]: Active
- IC50 [14]: 2540 nM
- logKi [15]: -5.71
- IC50 [16]: 17 nM
- logKi [17]: -4.87
- IC50 [18]: > 6000 nM
- IC50 [19]: > 3000 nM
- IC50 [20]: 3 nM
- IC50 [21]: > 600 nM
- IC50 [22]: 19 nM
